Experimental data published in patent US11072588B2, “Barbituric acid derivatives comprising cationic and lipophilic groups” (UNIVERSITETET I TROMSØ—NORGES ARKTISKE UNIVERSITET, priority 2017, dated 2021).
Converted amounts (≈) assume the structure as drawn. Where two headings read alike, the source gives them in different places.

Key:
E. faecium 50901530 = assay: MIC, multi-resistant clinical isolate; assay type: cell-based, Enterococcus faecium; details: for MIC: Enterococcus faecium, read-out: Antimicrobial activity (MIC); for selectivity index (EC50/MIC): RBC EC50 / MIC
Experimental: (§1) Working solutions of the test derivatives were prepared with up to 100% DMSO and stored at −20° C. If necessary, the solutions were heated to 40-80° C. before testing to facilitate complete dissolution. Double-distilled water was used in all dilutions prepared. […] A microdilution susceptibility test was used for MIC determination according to Clinical and Laboratory Standards Institute, “Methods for Dilution Antimicrobial Sisceptibility Tests for Bacteria That Graw Aerobically”, Approved Standard M07-A9, edition 2012, with modifications as described by Igumnova et al (Bioorg Med Chem, 2016, 24 (22), 5884-5894).
(§2) Briefly, the bacterial inoculum was adjusted to approximately 2.5-3×10^4 cells/mL in Mueller-Hinton broth (MHB, Difco Laboratories, USA), and incubated in a ratio of 1:1 with test derivatives in polystyrene 96-well flat-bottom microplates (NUNC, Roskilde, Denmark). Positive growth control (without test derivatives) and negative control (without bacteria) were included. The reference antibiotic was oxytetracycline hydrochloride (Sigma Aldrich, Saint Louis, Mo., USA). The microplates were incubated in an EnVision microplate reader (Perkin-Elmer, Turku, Finland) placed in an incubator set to 35° C. for 48 h. The MIC value was defined as the lowest concentration of derivative resulting in no bacterial growth as determined by OD600 measurement. All derivatives were tested in three parallels.
(§3) The MIC was determined as explained above with some exceptions; working solutions of test derivatives were prepared from concentrated DMSO stocks stored at room temperature, the density of the bacterial inoculum was increased 40× to 1-1.2×10^6 cells/mL, enterococci were incubated in Brain Heart Infusion broth (BHIB, Difco Laboratories, USA), the microplates were incubated for 24 h, and the derivatives were tested in four parallels.

E. faecium K36-18 = assay: MIC, multi-resistant clinical isolate; assay type: cell-based, Enterococcus faecium; details: for MIC: Enterococcus faecium, K3618, read-out: Antimicrobial activity (MIC); for selectivity index (EC50/MIC): RBC EC50 / MIC, E. faecium K36-18
Experimental: as §1, §2, §3

E. faecium 50673722 = assay: MIC, multi-resistant clinical isolate; assay type: cell-based, Enterococcus faecium; details: for MIC: Enterococcus faecium, read-out: Antimicrobial activity (MIC); for selectivity index (EC50/MIC): RBC EC50 / MIC
Experimental: as §1, §2, §3

E. faecium TUH50-22 = assay: MIC, multi-resistant clinical isolate; assay type: cell-based, Enterococcus faecium; details: for MIC: Enterococcus faecium, TUH5022, read-out: Antimicrobial activity (MIC); for selectivity index (EC50/MIC): RBC EC50 / MIC
Experimental: as §1, §2, §3

E. faecium 50758899 = assay: MIC, multi-resistant clinical isolate; assay type: cell-based, Enterococcus faecium; details: for MIC: Enterococcus faecium, read-out: Antimicrobial activity (MIC); for selectivity index (EC50/MIC): RBC EC50 / MIC
Experimental: as §1, §2, §3

S. epidermidis = assay: Anti-biofilm activity (inhibition of biofilm formation); assay type: cell-based; details: Staphylococcus epidermidis, read-out: Anti-biofilm IC50
P. aeruginosa 50692172 = assay: MIC, multi-resistant clinical isolate; assay type: cell-based, Pseudomonas aeruginosa; details: for MIC: Pseudomonas aeruginosa, read-out: Antimicrobial activity (MIC); for selectivity index (EC50/MIC): RBC EC50 / MIC
Experimental: as §1, §2, §3

P. aeruginosa K44-24 = assay: MIC, multi-resistant clinical isolate; assay type: cell-based, Pseudomonas aeruginosa; details: for MIC: Pseudomonas aeruginosa, K4424, read-out: Antimicrobial activity (MIC)
Experimental: as §1, §2, §3

P. aeruginosa K34-73 = assay: MIC, multi-resistant clinical isolate; assay type: cell-based, Pseudomonas aeruginosa; details: for MIC: Pseudomonas aeruginosa, K3473, read-out: Antimicrobial activity (MIC); for selectivity index (EC50/MIC): RBC EC50 / MIC, P. aeruginosa K34-73
Experimental: as §1, §2, §3

P. aeruginosa 50692520 = assay: MIC, multi-resistant clinical isolate; assay type: cell-based, Pseudomonas aeruginosa; details: for MIC: Pseudomonas aeruginosa, read-out: Antimicrobial activity (MIC); for selectivity index (EC50/MIC): RBC EC50 / MIC
Experimental: as §1, §2, §3

P. aeruginosa K34-7 = assay: MIC, multi-resistant clinical isolate; assay type: cell-based, Pseudomonas aeruginosa; details: for MIC: Pseudomonas aeruginosa, K347, read-out: Antimicrobial activity (MIC); for selectivity index (EC50/MIC): RBC EC50 / MIC, P. aeruginosa K34-7
Experimental: as §1, §2, §3

[1] = tested on: Staphylococcus aureus ATCC 9144; assay: MIC assay, antibiotic susceptible reference strain; assay type: cell-based; details: Staphylococcus aureus, ATCC9144, read-out: Antimicrobial activity (MIC) S. a
Experimental: as §1, §2

[2] = tested on: Escherichia coli ATCC 25922; assay: MIC assay, antibiotic susceptible reference strain; assay type: cell-based; details: Escherichia coli, ATCC25922, read-out: Antimicrobial activity (MIC) E. c
Experimental: as §1, §2

[3] = tested on: Corynebacterium glutamicum ATCC 13032; assay: MIC assay, antibiotic susceptible reference strain; assay type: cell-based; details: Corynebacterium glutamicum, ATCC13032, read-out: Antimicrobial activity (MIC) C. g
Experimental: as §1, §2

[4] = tested on: Pseudomonas aeruginosa PA01, DSM 19880 (ATCC 15692); assay: MIC assay, antibiotic susceptible reference strain; assay type: cell-based; details: Pseudomonas aeruginosa, read-out: Antimicrobial activity (MIC) P. a
Experimental: as §1, §2

[5] = tested on: panel of 30 multi-resistant clinical isolates of Gram-positive and Gram-negative bacteria; assay: MIC screening, ranges over the panel of clinical isolates; assay type: cell-based
Experimental: as §1, §2, §3

E. coli 50639799 = assay: MIC, multi-resistant clinical isolate; assay type: cell-based, Escherichia coli; details: for MIC: Escherichia coli, read-out: Antimicrobial activity (MIC); for selectivity index (EC50/MIC): RBC EC50 / MIC
Experimental: as §1, §2, §3

E. coli 50857972 = assay: MIC, multi-resistant clinical isolate; assay type: cell-based, Escherichia coli; details: for MIC: Escherichia coli, read-out: Antimicrobial activity (MIC); for selectivity index (EC50/MIC): RBC EC50 / MIC
Experimental: as §1, §2, §3

K. pneumoniae 50625602 = assay: MIC, multi-resistant clinical isolate; assay type: cell-based, Klebsiella pneumoniae; details: for MIC: Klebsiella pneumoniae, read-out: Antimicrobial activity (MIC)
Experimental: as §1, §2, §3

K. pneumoniae K66-45 = assay: MIC, multi-resistant clinical isolate; assay type: cell-based, Klebsiella pneumoniae; details: for MIC: Klebsiella pneumoniae, K6645, read-out: Antimicrobial activity (MIC)
Experimental: as §1, §2, §3

K. pneumoniae K47-25 = assay: MIC, multi-resistant clinical isolate; assay type: cell-based, Klebsiella pneumoniae; details: for MIC: Klebsiella pneumoniae, K4725, 24 h, read-out: Antimicrobial activity (MIC)
Experimental: as §1, §2, §3

K. pneumoniae 50667959 = assay: MIC, multi-resistant clinical isolate; assay type: cell-based, Klebsiella pneumoniae; details: for MIC: Klebsiella pneumoniae, read-out: Antimicrobial activity (MIC)
Experimental: as §1, §2, §3

K. pneumoniae 50531633 = assay: MIC, multi-resistant clinical isolate; assay type: cell-based, Klebsiella pneumoniae; details: K. pneumoniae 50531633, resistant to colistin; for MIC: Klebsiella pneumoniae, 24 h, read-out: Antimicrobial activity (MIC); for selectivity index (EC50/MIC): RBC EC50 / MIC
Experimental: as §1, §2, §3

Row | Structure (SMILES) | MIC (E. faecium 50901530) [µg/mL] | selectivity index (EC50/MIC) (E. faecium 50901530) | MIC (E. faecium K36-18) [µg/mL] | selectivity index (EC50/MIC) (E. faecium K36-18) | MIC (E. faecium 50673722) [µg/mL] | selectivity index (EC50/MIC) (E. faecium 50673722) | MIC (E. faecium TUH50-22) [µg/mL] | selectivity index (EC50/MIC) (E. faecium TUH50-22) | MIC (E. faecium 50758899) [µg/mL] | selectivity index (EC50/MIC) (E. faecium 50758899) | IC50 (S. epidermidis) [µg/mL] | MIC (P. aeruginosa 50692172) [µg/mL] | selectivity index (EC50/MIC) (P. aeruginosa 50692172) | MIC (P. aeruginosa K44-24) [µg/mL] | MIC (P. aeruginosa K34-73) [µg/mL] | selectivity index (EC50/MIC) (P. aeruginosa K34-73) | MIC (P. aeruginosa 50692520) [µg/mL] | selectivity index (EC50/MIC) (P. aeruginosa 50692520) | MIC (P. aeruginosa K34-7) [µg/mL] | selectivity index (EC50/MIC) (P. aeruginosa K34-7) | also measured
1 | CC(C)(C)c1cc(CC2(Cc3cc(C(C)(C)C)cc(C(C)(C)C)c3)C(=O)N(CCCCN)C(=O)N(CCCCN)C2=O)cc(C(C)(C)C)c1 [7(iii), 1,3-bis(4-aminobutyl)-5,5-bis(3,5-di-tert-butylbenzyl)-pyrimidin-2,4,6(1H,3H,5H)-trione] | 2 (≈ 2.96 µM) | (<2) | 2 (≈ 2.96 µM) | (<2) | 2 (≈ 2.96 µM) | (<2) | 2 (≈ 2.96 µM) | (<2) | 2 (≈ 2.96 µM) | (<2) | 1 (≈ 1.48 µM) | 8 (≈ 11.9 µM) | (<0.5) | 8 (≈ 11.9 µM) | 16 (≈ 23.7 µM) | (<2.5) | 8 (≈ 11.9 µM) | (<0.5) | 8 (≈ 11.9 µM) | (<0.5) | selectivity index (EC50/MIC) (P. aeruginosa K44-24; RBC EC50 / MIC): (<0.5); MIC [1]: 1 µg/mL (≈ 1.48 µM); MIC [2]: 2 µg/mL (≈ 2.96 µM); MIC [3]: 0.25 µg/mL (≈ 0.37 µM); MIC [4]: 4 µg/mL (≈ 5.93 µM); MIC ([5]; read-out: MIC values against all the 30 multi-resistant clinical isolates): 2 to 16 µg/mL (≈ 2.96 to 23.7 µM); MIC (E. coli 50639799): 4 µg/mL (≈ 5.93 µM); selectivity index (EC50/MIC) (E. coli 50639799): (<1); MIC (E. coli 50857972): 4 µg/mL (≈ 5.93 µM); selectivity index (EC50/MIC) (E. coli 50857972): (<1); MIC (K. pneumoniae 50625602): 8 µg/mL (≈ 11.9 µM); selectivity index (EC50/MIC) (K. pneumoniae 50625602; RBC EC50 / MIC): (<0.5); MIC (K. pneumoniae K66-45): 8 µg/mL (≈ 11.9 µM); selectivity index (EC50/MIC) (K. pneumoniae K66-45; RBC EC50 / MIC, K. pneumoniae K66-45): (<0.5); MIC (K. pneumoniae K47-25): 16 µg/mL (≈ 23.7 µM); selectivity index (EC50/MIC) (K. pneumoniae K47-25; RBC EC50 / MIC, K. pneumoniae K47-25, resistant to colistin): (<2.5); MIC (K. pneumoniae 50667959): 8 µg/mL (≈ 11.9 µM); selectivity index (EC50/MIC) (K. pneumoniae 50667959; RBC EC50 / MIC): (<0.5); MIC (K. pneumoniae 50531633): 8 µg/mL (≈ 11.9 µM); selectivity index (EC50/MIC) (K. pneumoniae 50531633): (<0.5)
2 | NCCCCN1C(=O)N(CCCCN)C(=O)C(Cc2ccc3ccccc3c2)(Cc2ccc3ccccc3c2)C1=O [7(iv), 1,3-bis(4-aminobutyl)-5,5-bis(naphtalen-2-yl-methyl)-pyrimidin-2,4,6(1H,3H,5H)-trione] | 8 (≈ 14.5 µM) | (30) | 16 (≈ 29.1 µM) | (15) | 16 (≈ 29.1 µM) | (15) | 8 (≈ 14.5 µM) | (30) | 16 (≈ 29.1 µM) | (15) | 4 (≈ 7.26 µM) | 32 (≈ 58.1 µM) | (8) | > 32 | 32 (≈ 58.1 µM) | (8) | 32 (≈ 58.1 µM) | (8) | 32 (≈ 58.1 µM) | (8) | MIC [1]: 8 µg/mL (≈ 14.5 µM); MIC [2]: 16 µg/mL (≈ 29.1 µM); MIC [3]: 1 µg/mL (≈ 1.82 µM); MIC [4]: 16 µg/mL (≈ 29.1 µM); MIC ([5]; Enterococcus faecium, read-out: MIC values against the Gram-positive isolates of S. aurues and E. faecium): 4 to 16 µg/mL (≈ 7.26 to 29.1 µM); MIC (E. coli 50639799): 16 µg/mL (≈ 29.1 µM); selectivity index (EC50/MIC) (E. coli 50639799): (15); MIC (E. coli 50857972): 16 µg/mL (≈ 29.1 µM); selectivity index (EC50/MIC) (E. coli 50857972): (15); MIC (K. pneumoniae 50625602): > 32 µg/mL; MIC (K. pneumoniae K66-45): > 32 µg/mL; MIC (K. pneumoniae K47-25): > 32 µg/mL; MIC (K. pneumoniae 50667959): > 32 µg/mL; MIC (K. pneumoniae 50531633): 32 µg/mL (≈ 58.1 µM); selectivity index (EC50/MIC) (K. pneumoniae 50531633): (8)
